Measurements: patent US20150086643A1, “TRADITIONAL CHINESE MEDICINE COMPOUND ANTITUMOR NANO PREPARATION AND USE THEREOF” (priority 2013, published 2015)

Tested on: H22 hepatoma carcinoma cells
Assay: In-vivo tumor inhibitory effect in H22 tumor-bearing Kunming mice
Procedure: The tumor-bearing Kunming mice are used to evaluate the in-vivo tumor inhibitory effect of the compound multiple-unit capsule of the present invention. Inoculating H22 hepatoma carcinoma cells (provided by Shanghai Institute of Materia Medica of Chinese Academy of Sciences) to enterocoelia of mice, taking out the H22 cells cultivated in the enterocoelia of mice after 6-8 days and preparing into homogeneous suspension with PBS; subcutaneously inoculating 0.2 mL of H22 cells (2×10^6/mL) to right axilla of each mouse. After inoculation, the mice are divided into 5 groups, 10 mice for each group: (1) Normal saline group (blank control), (2) 5-FU group (positive control), (3) 0.5% CMC-Na group, (4) Niu Huang Xing Xiao pill group and (5) Compound multiple-unit capsule group. The 5-FU group is subjected to administration through intraperitoneal injection, once every two days, with the dosage being 25 mg/kg. And the other four groups are subjected to intragastric administration. Preparation method of the Niu Huang Xing Xiao pill group and the compound multiple-unit capsule group is as follows: taking prescription amount of each component, adding the components into 0.5% CMC-Na water solution to prepare suspension. The concentration of drug for administration according to the original prescription for the groups (4) and (5) is 450 mg/kg (with the concentration of realgar being about 75 mg/kg). The tumor inhibiting rate is calculated with the following formula:
Tumor inhibiting rate=(C−T)/C×100%; C and T being average weight of the tumors on mice of the blank control and the treatment group.

## O=c1[nH]cc(F)c(=O)[nH]1 [Example 5-FU, 5-FU]
After treatment, n=10
  Weight of mice (g) After: 24.20 ± 1.75 g
Before treatment, n=10
  Weight of mice (g) Before: 20.20 ± 0.92 g
n=10, 5-FU 25 mg/kg i.p. once every two days, pill and capsule 450 mg/kg intragastric
  Weight of tumor: 0.50 ± 0.13 g
n=10, (C−T)/C×100% vs blank control, 5-FU 25 mg/kg i.p., pill and capsule 450 mg/kg intragastric
  Tumor inhibiting rate (%): 67.95%
